Calls of active or inactive are those of the source. No cut-off for these calls is given here.
Tests used:
Cannabinoid receptor 1 [1] = molecular target: T1, Cannabinoid receptor 1 (Homo sapiens, UniProt P21554); assay: Displacement of [3H]-SR- 141716A binding to human CB1 receptor expressed in CHO cell membranes at the concentration of 10 uM
Cannabinoid receptor 1 [2] = molecular target: T1, Cannabinoid receptor 1; assay: Displacement of [3H]-SR- 141716A binding to human CB1 receptor expressed in CHO cell membranes at the concentration of 10 uM; Not significant
Cannabinoid receptor 1 [3] = molecular target: T1, Cannabinoid receptor 1; assay: Ability to displace [3H]-SR- 141716A binding to CB1 receptor expressed in CHO cell membrane; type: cell membranes
Cannabinoid receptor 1 [4] = molecular target: T1, Cannabinoid receptor 1; assay: Displacement of [3H]-SR- 141716A binding to human CB1 receptor expressed in CHO cell membranes at the concentration of 1 uM
Cannabinoid receptor 1 [5] = molecular target: T1, Cannabinoid receptor 1; assay: biochemical; type: cell-based, CHO
Cannabinoid receptor 1 [6] = molecular target: T1, Cannabinoid receptor 1; assay: Binding affinity for brain CBI receptor was determined

T1 sequence (P21554 whole entry): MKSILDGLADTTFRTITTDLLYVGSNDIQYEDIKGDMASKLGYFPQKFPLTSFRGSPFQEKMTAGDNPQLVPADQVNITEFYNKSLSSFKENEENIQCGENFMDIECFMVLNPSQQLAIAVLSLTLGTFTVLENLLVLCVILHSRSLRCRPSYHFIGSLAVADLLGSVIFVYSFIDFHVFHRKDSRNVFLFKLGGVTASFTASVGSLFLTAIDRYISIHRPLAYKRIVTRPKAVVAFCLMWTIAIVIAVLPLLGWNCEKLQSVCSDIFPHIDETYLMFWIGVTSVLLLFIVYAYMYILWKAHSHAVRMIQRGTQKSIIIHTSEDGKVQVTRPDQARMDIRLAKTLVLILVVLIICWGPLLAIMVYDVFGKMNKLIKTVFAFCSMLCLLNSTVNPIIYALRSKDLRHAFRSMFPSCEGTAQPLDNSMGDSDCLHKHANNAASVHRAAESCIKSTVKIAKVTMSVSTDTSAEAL

## CCCCCCCCN1C(=O)NC(c2ccccc2)(c2ccccc2)C1=O
Cannabinoid receptor 1 [1]
  Displacement: 61.2%

## O=C1NC(c2ccccc2)(c2ccccc2)C(=O)N1CCN1CCOCC1
Cannabinoid receptor 1 [1]
  Displacement: < 5%

## O=C1NC(c2ccccc2)(c2ccccc2)C(=O)N1CCN1CCCCC1
Cannabinoid receptor 1 [1]
  Displacement: < 15%

## O=C1NC(=O)C(c2ccc(Br)cc2)(c2ccc(Br)cc2)N1
Cannabinoid receptor 1 [2]
  Displacement: inactive

## O=C1NC(c2ccc(Br)cc2)(c2ccc(Br)cc2)C(=O)N1CCN1CCOCC1
Cannabinoid receptor 1 [3]
  Ki: 70.3 nM
Cannabinoid receptor 1 [4]
  Displacement: 54.1%
Cannabinoid receptor 1 [1]
  Displacement: 91.2%

## COc1ccc(C2(c3ccc(OC)cc3)NC(=O)NC2=O)cc1
Cannabinoid receptor 1 [2]
  Displacement: inactive

## CCCN1C(=O)NC(c2ccccc2)(c2ccccc2)C1=O
Cannabinoid receptor 1 [1]
  Displacement: < 20%

## O=C1NC(c2ccc(F)cc2)(c2ccc(F)cc2)C(=O)N1CCN1CCOCC1
Cannabinoid receptor 1 [1]
  Displacement: 30.3%

## CCCCCCN1C(=O)NC(c2ccc(F)cc2)(c2ccc(F)cc2)C1=O
Cannabinoid receptor 1 [1]
  Displacement: 40.6%

## CCCCCN1C(=O)NC(c2ccccc2)(c2ccccc2)C1=O
Cannabinoid receptor 1 [1]
  Displacement: 35.4%

## CCCCCCC(C)(C)c1cc(O)c2c(c1)OC(C)(C)[C@@H]1CCC(CO)C[C@@H]21 (stereo partly specified)
Cannabinoid receptor 1 [5]
  Ki: 0.82 nM

## CCCCCCN1C(=O)NC(c2ccccc2)(c2ccccc2)C1=O
Cannabinoid receptor 1 [1]
  Displacement: 35.6%

## CCCCCCCCN1C(=O)NC(c2ccc(F)cc2)(c2ccc(F)cc2)C1=O
Cannabinoid receptor 1 [4]
  Displacement: 15.3%
Cannabinoid receptor 1 [1]
  Displacement: 62.5%

## CCCCCCN1C(=O)NC(c2ccc(C)cc2)(c2ccc(C)cc2)C1=O
Cannabinoid receptor 1 [1]
  Displacement: 46.8%

## CCCCN1C(=O)NC(c2ccccc2)(c2ccccc2)C1=O
Cannabinoid receptor 1 [1]
  Displacement: 25.1%

## Cc1ccc(C2(c3ccc(C)cc3)NC(=O)N(CCN3CCOCC3)C2=O)cc1
Cannabinoid receptor 1 [1]
  Displacement: 23.9%

## CCCCCCCN1C(=O)NC(c2ccc(F)cc2)(c2ccc(F)cc2)C1=O
Cannabinoid receptor 1 [1]
  Displacement: 51.4%

## O=C1NC(=O)C(c2ccccc2)(c2ccccc2)N1
Cannabinoid receptor 1 [2]
  Displacement: inactive

## O=C1NC(c2ccccc2)(c2ccccc2)C(=O)N1Cc1ccccc1
Cannabinoid receptor 1 [1]
  Displacement: 40.6%

## O=C1NC(c2ccccc2)(c2ccccc2)C(=O)N1C1CC1
Cannabinoid receptor 1 [1]
  Displacement: < 5%

## COc1ccc(C2(c3ccc(OC)cc3)NC(=O)N(CCN3CCOCC3)C2=O)cc1
Cannabinoid receptor 1 [1]
  Displacement: 21.7%

## CCCCCCCN1C(=O)NC(c2ccc(C)cc2)(c2ccc(C)cc2)C1=O
Cannabinoid receptor 1 [1]
  Displacement: 51.3%

## CCCCCn1ccc(C(=O)c2cccc3ccccc23)c1
Cannabinoid receptor 1 [6]
  Ki: 87 nM

## Cc1ccc(C2(c3ccc(C)cc3)NC(=O)NC2=O)cc1
Cannabinoid receptor 1 [2]
  Displacement: inactive

## CCCCCCCN1C(=O)NC(c2ccc(Br)cc2)(c2ccc(Br)cc2)C1=O
Cannabinoid receptor 1 [3]
  Ki: 97.9 nM
Cannabinoid receptor 1 [4]
  Displacement: 51.5%
Cannabinoid receptor 1 [1]
  Displacement: 89.2%

## CCCCCCCCN1C(=O)NC(c2ccc(Br)cc2)(c2ccc(Br)cc2)C1=O
Cannabinoid receptor 1 [4]
  Displacement: 48.2%
Cannabinoid receptor 1 [1]
  Displacement: 80%

## CCCCCCN1C(=O)NC(c2ccc(Br)cc2)(c2ccc(Br)cc2)C1=O
Cannabinoid receptor 1 [4]
  Displacement: 30.2%
Cannabinoid receptor 1 [1]
  Displacement: 72.1%

## O=C1NC(c2ccc(Br)cc2)(c2ccc(Br)cc2)C(=O)N1CCCO
Cannabinoid receptor 1 [3]
  Ki: 103 nM
Cannabinoid receptor 1 [4]
  Displacement: 50.2%
Cannabinoid receptor 1 [1]
  Displacement: 88.4%

## CN(C)CCN1C(=O)NC(c2ccccc2)(c2ccccc2)C1=O
Cannabinoid receptor 1 [1]
  Displacement: < 5%

## CCCCCCN1C(=O)NC(c2ccc(OC)cc2)(c2ccc(OC)cc2)C1=O
Cannabinoid receptor 1 [4]
  Displacement: 23%
Cannabinoid receptor 1 [1]
  Displacement: 66.6%

## O=C1NC(=O)C(c2ccc(F)cc2)(c2ccc(F)cc2)N1
Cannabinoid receptor 1 [2]
  Displacement: inactive
